Test results from publication PMC8623179, “Design and Microwave Synthesis of New (5Z) 5-Arylidene-2-thioxo-1,3-thiazolinidin-4-one and (5Z) 2-Amino-5-arylidene-1,3-thiazol-4(5H)-one as New Inhibitors of Protein Kinase DYRK1A” (Pharmaceuticals, 2021).
Like-named read-outs stand apart in the source and are kept apart here.

What was measured:
CDK5/p25 = biological target: T1, CDK5/p25 (Homo sapiens, UniProt Q00535); assay: CDK5/p25 kinase assay; assay type: biochemical; conditions: 15 μM ATP
T1 construct: made in house
T1 sequence (Q00535 whole entry): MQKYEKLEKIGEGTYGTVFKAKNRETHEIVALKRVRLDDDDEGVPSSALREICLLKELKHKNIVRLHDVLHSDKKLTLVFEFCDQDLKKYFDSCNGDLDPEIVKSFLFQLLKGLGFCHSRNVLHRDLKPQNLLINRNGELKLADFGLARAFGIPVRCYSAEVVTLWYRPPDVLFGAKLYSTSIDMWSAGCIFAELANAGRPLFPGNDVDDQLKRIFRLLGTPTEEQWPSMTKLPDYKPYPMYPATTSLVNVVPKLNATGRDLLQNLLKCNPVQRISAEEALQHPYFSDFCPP
T1 sequence (Q15078 99-307 partner limits assumed): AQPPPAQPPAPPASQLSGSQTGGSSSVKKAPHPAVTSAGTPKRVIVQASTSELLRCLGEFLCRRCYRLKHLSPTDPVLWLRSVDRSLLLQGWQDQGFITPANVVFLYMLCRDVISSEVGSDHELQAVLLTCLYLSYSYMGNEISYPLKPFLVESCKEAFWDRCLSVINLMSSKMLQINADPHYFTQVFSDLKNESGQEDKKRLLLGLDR
Protocol: (§1) The twenty-two (5Z) 5-arylidene-2-thioxo-1,3-thiazolidin-4-ones 3a–v and the twenty-four (5Z) 2-amino-5-arylidene-1,3-thiazolidin-4(5H)-ones 5a–x were evaluated against four different and representative in vitro kinase assays DYRK1A (dual specificity tyrosine phosphorylation regulated kinase), CK1 δ/e (caseine kinase 1), CDK5/p25 (cyclin dependant kinase), and GSK3 α/β (glycogen synthase kinase 3) to evaluate their inhibition potency. […] All the compounds were initially tested at a 10 μM concentration.
(§2) After 30-min incubation at 30 °C, the reaction was stopped by harvesting, using a FilterMate harvester (Packard), onto P81 phospho-cellulose papers (GE Healthcare, Chicago, IL, USA) which were washed in 1% phosphoric acid. Scintillation fluid was added and the radioactivity measured in a Packard counter. Blank values were subtracted and activities calculated as pmoles of phosphate incorporated for the 30-min incubation. The activities were expressed in % of the maximal activity, i.e., in the absence of inhibitors. Controls were performed with appropriate dilutions of DMSO.
CDK5/p25 (human, recombinant) was prepared as previously described. […] ATP (3000 Ci/mmol; 10 mCi/mL) in a final volume of 30 μL. After 30-min incubation at 30 °C, 25 μL aliquots of supernatant were spotted onto 2.5 × 3 cm pieces of Whatman P81 phospho-cellulose paper, and, 20 s later, the filters were washed five times (for at least 5 min each time) in a solution of 10 mL phosphoric acid/litter of water. The wet filters were counted in the presence of 1 mL ACS (Amersham, UK) scintillation fluid.

GSK-3α/β = GSK-3α/β kinase assay; assay type: biochemical, porcine; conditions: 15 μM ATP, read-out: IC50 GSK3α/β
Protocol: as §1, §2
GSK-3α/β (porcine brain, native) was assayed, as described for CDK5/p25 but in Buffer A and using a GSK-3 specific substrate (GS-1: […]pEDEEE) (pS stands for phosphorylated serine). GS-1 was synthesized by Millegen (Labege, France).

DYRK1A [1] = biological target: T2, DYRK1A (Rattus norvegicus, UniProt Q63470); assay: DYRK1A kinase assay; assay type: biochemical; conditions: 15 μM ATP
T2 construct: GST; made in house; host or cells: Escherichia coli
Protocol: as §1
as §2, with “DMSO. […]” for “DMSO.”

Casein kinase 1 (CK1δ/ε) = assay: CK1δ/ε kinase assay; assay type: biochemical, porcine; conditions: 15 μM ATP, read-out: IC50 CK1
Protocol: as §1, §2
Casein kinase 1 (CK1δ/ε) (porcine brain, native) was assayed with 0.67 µg of CKS peptide ([…]pSAYSITA), a CK1 specific substrate obtained from Millegen (Labege, France).

DYRK1A [2] = conditions: reported; cited from earlier work
HCT116 = assay: Cell survival assay, HCT116; assay type: cell-based; conditions: Homo sapiens, HCT-116; 48 h exposure, nuclei count; read-out: Cell Lines IC50 HCT116
Protocol: (§3) Skin diploid fibroblastic cells were provided by BIOPREDIC International Company (Rennes, France). […] Cells were grown according to ECACC recommendations. The toxicity test of the compounds on these cells was as follows: 2 × 10^3 cells for HCT-116 cells or 4 × 10^3 for the other cells were seeded in 96-multi-well plates in triplicate and left for 24 h for attachment, spreading and growing. Then, cells were exposed for 48 h to increasing concentrations of the compounds, ranging from […], in a final volume of 120 μL of culture medium. […] The IC50 were graphically determined.

Fibroblasts = assay: Cell survival assay, normal skin diploid fibroblasts; assay type: cell-based; conditions: Fibroblast; normal cells, 48 h exposure, nuclei count; read-out: Cell Lines IC50 Fibroblasts
Protocol: as §3

MDA-MB231 = assay: Cell survival assay, MDA-MB231; assay type: cell-based; conditions: Homo sapiens, MDA-MB-231; 48 h exposure, nuclei count; read-out: Cell Lines IC50 MDA-MB231
Protocol: as §3

Caco2 = assay: Cell survival assay, Caco2; assay type: cell-based; conditions: Homo sapiens, Caco-2; 48 h exposure, nuclei count; read-out: Cell Lines IC50 Caco2
Protocol: as §3

Huh7 D12 = assay: Cell survival assay, Huh7 D12; assay type: cell-based; conditions: Huh-7D12; 48 h exposure, nuclei count; read-out: Cell Lines IC50 Huh7 D12
Protocol: as §3

PC3 = assay: Cell survival assay, PC3; assay type: cell-based; conditions: Homo sapiens, PC-3; 48 h exposure, nuclei count; read-out: Cell Lines IC50 PC3
Protocol: as §3

NCI-H727 = assay: Cell survival assay, NCI-H727; assay type: cell-based; conditions: Homo sapiens, 48 h exposure, nuclei count, read-out: Cell Lines IC50 NCI-H727
Protocol: as §3

Row | Compound | IC50 (CDK5/p25; Table 5) | IC50 (GSK-3α/β; Table 5) | IC50 (DYRK1A [1]; Table 5) | IC50 (Casein kinase 1 (CK1δ/ε); Table 5) | IC50 (CDK5/p25; Table 4) | IC50 (GSK-3α/β; Table 4) | IC50 (DYRK1A [1]; Table 4) | IC50 (Casein kinase 1 (CK1δ/ε); Table 4) | also measured
1 | O=C1NC(=S)S/C1=C\c1cc(O)cc(O)c1 [Compound 3k, (5Z)-5-(3,5-Dihydroxybenzylidene)-2-thioxo-1,3-thiazolidin-4-one] |  |  |  |  | > 10 µM | > 10 µM | > 10 µM | > 10 µM | melting point: 230 to 232 °C
2 | O=C(O)CN1C(=O)/C(=C/c2ccc3c(c2)OCO3)SC1=S [Compound 3u, (5Z)-(5-Benzo[1,3]dioxol-5-ylmethylene-4-oxo-2-thioxo-thiazolidin-3-yl)-acetic acid] |  |  |  |  | > 10 µM | > 10 µM | 0.16 µM | > 10 µM | 
3 | 2-(pyridin-3-yl)-1H-indol-6-ol |  |  |  |  |  |  |  |  | IC50 (DYRK1A [2]): 0.06 µM
5 | O=C1NC(=S)S/C1=C\c1ccc(O)cc1 [Compound 3e, (5Z)-5-(4-Hydroxybenzylidene)-2-thioxo-1,3-thiazolidin-4-one] |  |  |  |  | > 10 µM | > 10 µM | 0.028 µM | > 10 µM | 
6 | O=C1NC(=S)S/C1=C\c1ccc2c(c1)OCO2 [Compound 3a, (5Z)-5-(1,3-Benzodioxol-5-ylmethylene)-2-thioxo-1,3-thiazolidin-4-one] |  |  |  |  | > 10 µM | 8.5 µM | 0.07 µM | > 10 µM | IC50 (HCT116): > 25 µM; IC50 (Fibroblasts): > 25 µM; IC50 (MDA-MB231): > 25 µM; IC50 (Caco2): > 25 µM; IC50 (Huh7 D12): > 25 µM; IC50 (PC3): > 25 µM; IC50 (NCI-H727): > 25 µM
7 | COc1cc(C)c(-c2c3c4cc(OC)c(O)cc4oc(=O)c3n3ccc4cc(O)c(OC)cc4c23)cc1O [XII] |  |  |  |  |  |  |  |  | IC50 (DYRK1A [2]): 0.042 µM

Second part, led by results:

Row | IC50 (CDK5/p25; Table 5) | IC50 (GSK-3α/β; Table 5) | IC50 (DYRK1A [1]; Table 5) | IC50 (Casein kinase 1 (CK1δ/ε); Table 5) | IC50 (CDK5/p25; Table 4) | IC50 (GSK-3α/β; Table 4) | IC50 (DYRK1A [1]; Table 4) | IC50 (Casein kinase 1 (CK1δ/ε); Table 4) | Compound | also measured
8 | > 10 µM | ≥ 10 µM | 0.6 µM | > 10 µM |  |  |  |  | O=C1N=C(N2CCOCC2)S/C1=C\c1ccc2c(c1)CCO2 [Compound 5m, (5Z)-5-(2,3-Dihydro-benzofuran-5-ylmethylene)-2-(morpholin-4-yl)-1,3-thiazol-4(5H)-one] | 
9 | > 10 µM | > 10 µM | 2.3 µM | > 10 µM |  |  |  |  | CN1CCN(C2=NC(=O)/C(=C/c3ccc4c(c3)OCO4)S2)CC1 [Compound 5f, (5Z)-5-(1,3-Benzodioxol-5-ylmethylene)-2-(4-N-methylpiperazin-1-yl)-1,3-thiazol-4(5H)-one] | 
10 | > 10 µM | 3.7 µM | 0.17 µM | > 10 µM |  |  |  |  | O=C1N=C(N2CCSCC2)S/C1=C\c1ccc2c(c1)OCCO2 [Compound 5q, (5Z)-5-(2,3-Dihydro-1,4-benzodioxin-6-ylmethylene)-2-(thiomorpholin-4-yl)-1,3-thiazol-4(5H)-one] | 
11 | > 10 µM | > 10 µM | 9 µM | > 10 µM |  |  |  |  | O=C1N=C(Nc2ccc(Cl)cc2)S/C1=C\c1ccc2c(c1)OCO2 [Compound 5v, (5Z)-5-Benzo[1,3]dioxol-5-ylmethylene-2-(4-chloro-phenylamino)-1,3-thiazol-4(5H)-one] | 
12 | > 10 µM | 7.4 µM | 0.053 µM | > 10 µM |  |  |  |  | O=C1N=C(N2CCCCC2)S/C1=C\c1ccc2c(c1)OCO2 [Compound 5i, (5Z)-5-(1,3-Benzodioxol-5-ylmethylene)-2-(piperidin-1-yl)-1,3-thiazol-4(5H)-one] | 
13 | > 10 µM | > 10 µM | > 10 µM | > 10 µM |  |  |  |  | COc1ccc(/C=C2\SC(N3CCSCC3)=NC2=O)cc1OC [Compound 5h, (5Z)-5-(3,4-Dimethoxybenzylidene)-2-(thiomorpholin-1-yl)-1,3-thiazol-4(5H)-one] | 
